Measured values published in patent US20020137929A1, “1 - (3-heterocyclylphenyl) isothiourea, -isourea, -guanidine and -amidine herbicidal agents” (Intellectual Property Department, BASF Aktiengesellschaft, priority 1998, published 2002).

What was measured:
[1] = system: SAGPY (Arrowhead (Pygmaea)); assay: Preemergence weed control under flooded paddy conditions; format: in vivo, Sagittaria pygmaea; details: rated 3-4 weeks after treatment
In short: (§1)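 Using flooded silt loam (water 1.5 to 3 cm deep), seeds sown in the top 0.5 cm were exposed preemergence to compound pipetted into the flood at about 0.0313 to 0.500 kg/ha. Effects were scored 0-9 by eye three to four weeks later.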

MOOVA (Monochoria) = assay: as above; format: in vivo, Monochoria vaginalis; details: rated 3-4 weeks after treatment
In short: as §1

[2] = system: TRZAWR (Wheat, Winter, cv Riband); assay: Preemergence herbicidal evaluation; format: in vivo, Triticum aestivum; details: rated 4-5 weeks after treatment
In short: (§2)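 Scores use a 0–9 visual scale covering stand, vigor, malformation, size and chlorosis relative to controls, rated four to five weeks after treatment. Before emergence, soil-planted seeds were sprayed with compound in aqueous acetone at roughly 0.0156–0.500 kg/ha and held in the greenhouse.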

ZEAMX (Corn, Field) = assay: Preemergence herbicidal evaluation; format: in vivo, Zea mays; details: rated 4-5 weeks after treatment
In short: as §2

ORYSAT (Rice, Tebonnet) [3] = assay: Postemergence herbicidal evaluation; format: in vivo, Oryza sativa, (L.) Tebonnet; details: postemergence
In short: (§3)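 Compound is applied as a foliar spray to seedlings about two weeks old, formulated in equal parts acetone and water with 0.5% TWEEN 20 and delivered at 40 psi to give about 0.0156–0.500 kg per hectare. Injury is rated visually 0–9 after four to five weeks.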

SETVI (Foxtail, Green) = assay: Preemergence herbicidal evaluation; format: in vivo, Setaria viridis; details: rated 4-5 weeks after treatment
In short: as §2

[4] = system: CHEAL (Lambsquarters, Common); assay: Postemergence herbicidal evaluation; format: in vivo, Chenopodium album; details: postemergence
In short: as §3

ORYSAT (Rice, Tebonnet) [5] = assay: Preemergence herbicidal evaluation; format: in vivo, Oryza sativa, (L.) Tebonnet; details: rated 4-5 weeks after treatment
In short: as §2

GALAP (Galium) = assay: Preemergence herbicidal evaluation; format: in vivo, Galium aparine; details: rated 4-5 weeks after treatment
In short: as §2

CYPIR (Rice Flatsedge) = assay: Preemergence weed control under flooded paddy conditions; format: in vivo, Cyperus iria; details: rated 3-4 weeks after treatment
In short: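 Herbicidal effect is scored visually on a 0-9 scale against an untreated control, three to four weeks after compounds are pipetted into the flood water (1.5 to 3 cm deep) over seeds planted in silt loam at 0.5 cm depth. Rates: about 0.0313 to 0.500 kg/ha.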

ECHCG (Barnyardgrass) = assay: Postemergence herbicidal evaluation; format: in vivo, Echinochloa crus-galli; details: postemergence
In short: as §3

CYPSE (Flatsedge) = assay: Postemergence weed control under flooded paddy conditions; format: in vivo, Cyperus serotinus; details: postemergence weeds, rated 3 to 4 weeks after treatment
In short: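 Injury ratings (0–9 scale covering stand, vigor, malformation, size, chlorosis and overall appearance versus control) were made three to four weeks after treatment. Test material, about 0.0313 to 0.500 kg/ha a.i. in 50/50 v/v aqueous/acetone, was added to flood water 1.5 to 3 cm deep over 3 to 5 cm weeds and 1.5 to 2.5 leaf rice.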

[6] = system: GLXMAW (Soybean, Williams); assay: Preemergence herbicidal evaluation; format: in vivo, Glycine max, (L.) Merr. cv Williams; details: rated 4-5 weeks after treatment
In short: as §2

CASOB (Sicklepod) = assay: Postemergence herbicidal evaluation; format: in vivo, Cassia obtusifolia; details: postemergence
In short: as §3

With CCOC(=O)CN1C(=O)C(CC(=O)Nc2ccccc2)SC1=Nc1cc(-n2c(=O)cc(C(F)(F)F)n(C)c2=O)c(F)cc1Cl (stereo not shown) [Compound 68, Ethyl 2-{{2-chloro-5-[3,6-dihydro-3-methyl-2,6-dioxo-4-(trifluoromethyl)-1(2H)-pyrimidinyl]-4-fluorophenyl}imino}-4-oxo-5-[(phenylcarbamoyl)-methyl]-3-thiazolidineacetate] the “SAGPY herbicidal effect rating” value ([1]; 0.0313 kg/ha) was 0.0, the “SAGPY herbicidal effect rating” value ([1]; 0.0625 kg/ha) was 0.0 and the “SAGPY herbicidal effect rating” value ([1]; 0.1250 kg/ha) was 0.0. The “SAGPY herbicidal effect rating” value ([1]; 0.2500 kg/ha) was 3.0, the “MOOVA herbicidal effect rating” value (MOOVA (Monochoria); 0.0313 kg/ha) was 3.0 and the “MOOVA herbicidal effect rating” value (MOOVA (Monochoria); 0.0625 kg/ha) was 9.0. For the same compound, the “MOOVA herbicidal effect rating” value (MOOVA (Monochoria); 0.1250 kg/ha) was 9.0, the “MOOVA herbicidal effect rating” value (MOOVA (Monochoria); 0.2500 kg/ha) was 9.0 and the “Preemergence herbicidal rating TRZAWR” value ([2]; rate 0.0156 kg/ha) was 0.0. For the same compound, the “Preemergence herbicidal rating TRZAWR” value ([2]; rate 0.0313 kg/ha) was 0.0, the “Preemergence herbicidal rating TRZAWR” value ([2]; rate 0.0625 kg/ha) was 0.0 and the “Preemergence herbicidal rating TRZAWR” value ([2]; rate 0.1250 kg/ha) was 0.0. The “Preemergence herbicidal rating TRZAWR” value ([2]; rate 0.2500 kg/ha) was 1.0, the “Preemergence herbicidal rating ZEAMX” value (ZEAMX (Corn, Field); rate 0.0156 kg/ha) was 0.0 and the “Preemergence herbicidal rating ZEAMX” value (ZEAMX (Corn, Field); rate 0.0313 kg/ha) was 0.0. The “Preemergence herbicidal rating ZEAMX” value (ZEAMX (Corn, Field); rate 0.0625 kg/ha) was 0.0, the “Preemergence herbicidal rating ZEAMX” value (ZEAMX (Corn, Field); rate 0.1250 kg/ha) was 1.0 and the “Preemergence herbicidal rating ZEAMX” value (ZEAMX (Corn, Field); rate 0.2500 kg/ha) was 1.0. The ORYSAT herbicidal rating (ORYSAT (Rice, Tebonnet) [3]; rate 0.0158 kg/ha) was 3.0, the ORYSAT herbicidal rating (ORYSAT (Rice, Tebonnet) [3]; rate 0.0315 kg/ha) was 3.5 and the ORYSAT herbicidal rating (ORYSAT (Rice, Tebonnet) [3]; rate 0.0630 kg/ha) was 4.0. The “Preemergence herbicidal rating SETVI” value (SETVI (Foxtail, Green); rate 0.0156 kg/ha) was 0.0, the “Preemergence herbicidal rating SETVI” value (SETVI (Foxtail, Green); rate 0.0313 kg/ha) was 0.0 and the “Preemergence herbicidal rating SETVI” value (SETVI (Foxtail, Green); rate 0.0625 kg/ha) was 0.0. For the same compound, the “Preemergence herbicidal rating SETVI” value (SETVI (Foxtail, Green); rate 0.1250 kg/ha) was 0.0, the “Preemergence herbicidal rating SETVI” value (SETVI (Foxtail, Green); rate 0.2500 kg/ha) was 2.0 and the CHEAL herbicidal rating ([4]; rate 0.0158 kg/ha) was 4.0. The CHEAL herbicidal rating ([4]; rate 0.0315 kg/ha) was 7.0, the CHEAL herbicidal rating ([4]; rate 0.0630 kg/ha) was 7.0 and the “Preemergence herbicidal rating ORYSAT” value (ORYSAT (Rice, Tebonnet) [5]; rate 0.0156 kg/ha) was 0.0. For the same compound, the “Preemergence herbicidal rating ORYSAT” value (ORYSAT (Rice, Tebonnet) [5]; rate 0.0313 kg/ha) was 0.0, the “Preemergence herbicidal rating ORYSAT” value (ORYSAT (Rice, Tebonnet) [5]; rate 0.0625 kg/ha) was 0.0 and the “Preemergence herbicidal rating ORYSAT” value (ORYSAT (Rice, Tebonnet) [5]; rate 0.1250 kg/ha) was 0.0. The “Preemergence herbicidal rating ORYSAT” value (ORYSAT (Rice, Tebonnet) [5]; rate 0.2500 kg/ha) was 1.0, the “Preemergence herbicidal rating GALAP” value (GALAP (Galium); rate 0.0156 kg/ha) was 0.0 and the “Preemergence herbicidal rating GALAP” value (GALAP (Galium); rate 0.0313 kg/ha) was 0.0. For the same compound, the “Preemergence herbicidal rating GALAP” value (GALAP (Galium); rate 0.0625 kg/ha) was 0.0, the “Preemergence herbicidal rating GALAP” value (GALAP (Galium); rate 0.1250 kg/ha) was 0.0 and the “Preemergence herbicidal rating GALAP” value (GALAP (Galium); rate 0.2500 kg/ha) was 0.0. The “CYPIR herbicidal effect rating” value (CYPIR (Rice Flatsedge); 0.0313 kg/ha) was 0.0, the “CYPIR herbicidal effect rating” value (CYPIR (Rice Flatsedge); 0.0625 kg/ha) was 0.0 and the “CYPIR herbicidal effect rating” value (CYPIR (Rice Flatsedge); 0.1250 kg/ha) was 5.0. For the same compound, the “CYPIR herbicidal effect rating” value (CYPIR (Rice Flatsedge); 0.2500 kg/ha) was 8.0, the ECHCG herbicidal rating (ECHCG (Barnyardgrass); rate 0.0158 kg/ha) was 2.0 and the ECHCG herbicidal rating (ECHCG (Barnyardgrass); rate 0.0315 kg/ha) was 2.0. For the same compound, the ECHCG herbicidal rating (ECHCG (Barnyardgrass); rate 0.0630 kg/ha) was 5.0, the “Herbicidal rating CYPSE” value (CYPSE (Flatsedge); Rate 0.0313 kg/ha) was 0.0 and the “Herbicidal rating CYPSE” value (CYPSE (Flatsedge); Rate 0.0625 kg/ha) was 0.0. For the same compound, the “Herbicidal rating CYPSE” value (CYPSE (Flatsedge); Rate 0.1250 kg/ha) was 0.0, the “Herbicidal rating CYPSE” value (CYPSE (Flatsedge); Rate 0.2500 kg/ha) was 0.0 and the “Preemergence herbicidal rating GLXMAW” value ([6]; rate 0.0156 kg/ha) was 0.0. The “Preemergence herbicidal rating GLXMAW” value ([6]; rate 0.0313 kg/ha) was 0.0, the “Preemergence herbicidal rating GLXMAW” value ([6]; rate 0.0625 kg/ha) was 0.0 and the “Preemergence herbicidal rating GLXMAW” value ([6]; rate 0.1250 kg/ha) was 1.0. For the same compound, the “Preemergence herbicidal rating GLXMAW” value ([6]; rate 0.2500 kg/ha) was 1.0, the CASOB herbicidal rating (CASOB (Sicklepod); rate 0.0158 kg/ha) was 1.0 and the CASOB herbicidal rating (CASOB (Sicklepod); rate 0.0315 kg/ha) was 4.0. For the same compound, the CASOB herbicidal rating (CASOB (Sicklepod); rate 0.0630 kg/ha) was 7.0.
